The record followed here is patent US20240190994A1, “FUSION PROTEIN BETWEEN ANTIGEN-BINDING MOLECULE AND STREPTAVIDIN VARIANT” (The University of Tokyo, priority 2021, published 2024).

In experiment [1] the test system is KPL-4 xenograft (HER2-positive breast cancer). The experiment can be described thus: in vivo breast cancer tumor model experiment, tumor volume. Further details: species or system BALB/cSlc-nu/nu nude mice. On the procedure:
The KPL-4 cell line was maintained in DMEM (low glucose) (FUJIFILM Wako Pure Chemical Corporation, Osaka, Japan) supplemented with 10% FBS, 100 U/mL penicillin, and 100 μg/mL streptomycin (#15140122, Thermo Fisher Scientific, Waltham, MA, USA) (Kurebayashi J, Otsuki T, Tang CK, et al. Isolation and characterization of a new human breast cancer cell line, KPL-4, expressing the Erb B family receptors and interleukin-6. Br J Cancer. 1999; 79: 707-717. doi:10.1038/sj.bjc.6690114). The KPL-4 cells (7,500,000) were subcutaneously transplanted into the thigh of BALB/cSlc-nu/nu nude mice (Sankyo Lab Service, Inc., Tokyo, Japan). Proliferation of the subcutaneous tumor was monitored by measuring a tumor volume (0.5×length×width^2) using Vernier calipers, and the body weight of the animals was then monitored as an indicator of treatment-related toxicity.
In this study, in order to evaluate tumor recurrence, the observation period was set to be […] after the initial treatment. […] Finally, the xenograft mouse models were sacrificed at 97 days after the treatment, namely, at 19 days or more after the second treatment.
Preparation of ZHER2:342-Cupid-His and Psyche-Ax-SiPC was as previously reported (Yamatsugu K, Katoh H, Yamashita T, et al., Antibody mimetic drug conjugate manufactured by high-yield Protein Expr Purif. 2022; 192: 106043. doi:10.1016/j.pep.2021 106043). Briefly speaking, Psyche-Ax-SiPC solubilized in dimethyl sulfoxide at a concentration of 5 mM was preserved as a stock solution at −80° C. In order to prepare a complex, ZHER2:342-Cupid-His and Psyche-Ax-SiPC were mixed with each other at a molar ratio of 1:2 in a dark place on ice for 10 minutes. A concentrate of ZHER2:342-Cupid-His-Ax-SiPC was diluted using a phosphate-buffered saline.
Twenty hours after the injection, the mice in the ZHER2:342-Cupid-His-Ax-SiPC group were irradiated with a 690-nm light emitting diode light (Yamato Scientific Co., Ltd., Tokyo, Japan) at 230 J/cm^−2. Forty-eight hours after the initial light irradiation, the tumor was irradiated again in the same manner as that described above.

Experiment [2] has as its system KPL-4 xenograft tumor site, skin and major organs. Briefly: pathological analysis (H & E histology) of xenograft mouse models. The experiment is classed as in vivo, BALB/cSlc-nu/nu nude mice. The settings on record: 97th day. The text has this:
Skin samples from xenograft tumor sites, and samples from other important organs including lung, heart, kidney, liver and gastrointestinal tract, were obtained from the mice. […] Stained slides were dehydrated again by being immersed in ethanol and then being immersed in xylene. […] The H & E-stained slides were histologically examined using the OLYMPUS cellSens Standard system (OLYMPUS, Tokyo, Japan).

For the substance trastuzumab emtansine [Kadcyla], in experiment [1] (Kadcyla 300 μg/mouse, ZHER2:342-Cupid-His-Ax-SiPC 150 μg/mouse with 690-nm light, n=10, FIG. 11), the “tumor size after the first treatment” value was “a reduction in the tumor size was observed”. In experiment [1] (at 21 days after the injection, n=10), the “cases with tumor volume decreased to 0 mm^3” value came out at 1 case. For the same substance, the “course of tumor volume after the treatment” value in experiment [1] (single administration, FIGS. 11B-D) is “gradually decreased”. Moreover, the “tumor size in the long term after single treatment” value in experiment [1] (up to 2 months after the injection) is “steady decrease in the tumor size”. Also, the pathological response result in experiment [2] is reported as “pathological complete remission was achieved”. The “metastatic tumors in lymph nodes or distant organs” value in experiment [2] (FIG. 13 and FIG. 14) is “No metastatic tumors were observed”. In experiment [2] (n=10, FIG. 13 and FIG. 14), the “residual tumor cells in the subcutaneous region around the xenograft tumor site” value is “no residual tumor cells were observed”.
